Laboratory results as given in patent publication US8389500B2, “Fused heterocyclic compounds as ion channel modulators” (Gilead Sciences, Inc., priority 2008, dated 2013).

biological target: T1, wild-type human cardiac sodium channel, hNav1.5 (late sodium current) (Homo sapiens, UniProt Q14524); test: Late INa screening assay (PatchXpress whole cell patch clamp); format: cell-based; conditions: 1 μM test compound; HEK293 hNav1.5; late INa generated with 10 μM Tefluthrin (some experiments 50 nM ATX II); read-out: Late INa % blk (1 μM test cmpd)
T1 construct: host or cells: HEK293
T1 sequence (Q14524 whole entry): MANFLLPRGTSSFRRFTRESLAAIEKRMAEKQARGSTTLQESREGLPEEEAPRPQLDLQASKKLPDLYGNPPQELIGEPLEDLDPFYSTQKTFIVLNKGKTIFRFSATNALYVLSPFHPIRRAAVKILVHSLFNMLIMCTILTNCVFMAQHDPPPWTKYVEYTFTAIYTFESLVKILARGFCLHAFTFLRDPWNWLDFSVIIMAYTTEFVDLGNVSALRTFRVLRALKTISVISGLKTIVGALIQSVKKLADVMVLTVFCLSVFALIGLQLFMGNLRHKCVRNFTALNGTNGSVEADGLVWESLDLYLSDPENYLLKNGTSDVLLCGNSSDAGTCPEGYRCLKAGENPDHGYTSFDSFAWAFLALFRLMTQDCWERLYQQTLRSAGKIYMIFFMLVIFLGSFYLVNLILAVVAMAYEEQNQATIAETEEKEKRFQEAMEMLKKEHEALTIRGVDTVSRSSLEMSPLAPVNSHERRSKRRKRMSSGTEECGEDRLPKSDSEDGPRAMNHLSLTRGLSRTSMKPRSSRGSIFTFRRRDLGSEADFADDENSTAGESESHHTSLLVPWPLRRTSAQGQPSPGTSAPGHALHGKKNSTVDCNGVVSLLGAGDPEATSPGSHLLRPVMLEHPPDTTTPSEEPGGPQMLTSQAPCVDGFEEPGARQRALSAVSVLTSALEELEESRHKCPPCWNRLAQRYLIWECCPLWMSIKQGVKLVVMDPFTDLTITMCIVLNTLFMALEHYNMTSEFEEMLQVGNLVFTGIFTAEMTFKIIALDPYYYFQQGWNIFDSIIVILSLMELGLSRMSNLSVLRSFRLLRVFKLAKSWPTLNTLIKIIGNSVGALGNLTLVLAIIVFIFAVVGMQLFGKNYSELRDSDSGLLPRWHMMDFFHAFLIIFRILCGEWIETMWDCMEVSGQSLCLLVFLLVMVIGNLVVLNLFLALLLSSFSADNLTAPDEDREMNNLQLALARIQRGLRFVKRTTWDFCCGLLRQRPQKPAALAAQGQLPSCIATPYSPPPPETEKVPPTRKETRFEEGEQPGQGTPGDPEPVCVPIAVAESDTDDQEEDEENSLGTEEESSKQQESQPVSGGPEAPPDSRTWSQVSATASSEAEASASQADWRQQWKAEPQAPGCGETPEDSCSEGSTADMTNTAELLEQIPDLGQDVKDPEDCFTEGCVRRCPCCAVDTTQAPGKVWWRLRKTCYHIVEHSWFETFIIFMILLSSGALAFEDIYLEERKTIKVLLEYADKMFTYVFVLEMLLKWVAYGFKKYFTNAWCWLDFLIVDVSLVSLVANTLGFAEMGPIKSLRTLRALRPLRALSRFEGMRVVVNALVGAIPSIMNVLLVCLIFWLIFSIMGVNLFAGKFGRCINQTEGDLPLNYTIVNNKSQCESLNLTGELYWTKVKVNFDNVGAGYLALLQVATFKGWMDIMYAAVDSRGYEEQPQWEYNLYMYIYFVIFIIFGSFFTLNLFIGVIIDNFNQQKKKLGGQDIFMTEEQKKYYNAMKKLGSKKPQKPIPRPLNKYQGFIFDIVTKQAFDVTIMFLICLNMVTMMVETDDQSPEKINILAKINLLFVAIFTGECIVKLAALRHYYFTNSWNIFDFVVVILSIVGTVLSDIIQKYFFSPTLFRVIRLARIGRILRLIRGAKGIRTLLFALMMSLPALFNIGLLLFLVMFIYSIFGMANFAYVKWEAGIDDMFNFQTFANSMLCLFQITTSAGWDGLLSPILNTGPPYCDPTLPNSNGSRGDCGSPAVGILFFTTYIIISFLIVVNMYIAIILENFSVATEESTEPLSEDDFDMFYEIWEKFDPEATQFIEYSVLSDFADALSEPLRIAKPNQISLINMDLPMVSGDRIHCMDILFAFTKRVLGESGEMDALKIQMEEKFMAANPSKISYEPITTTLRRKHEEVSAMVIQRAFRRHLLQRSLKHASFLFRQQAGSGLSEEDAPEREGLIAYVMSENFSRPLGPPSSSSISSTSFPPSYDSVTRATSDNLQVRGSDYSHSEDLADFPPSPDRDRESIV
Method: The late sodium current (Late INa) and peak sodium current (Peak INa) assays are performed on an automated electrophysiology platform, PatchXpress 7000A (MDS Analytical Technologies, Sunnyvale, Calif.), which uses the whole cell patch clamp technique to measure currents through the cell membrane of up to 16 cells at a time. The assay uses an HEK293 (human embryonic kidney) cell line heterologously expressing the wild-type human cardiac sodium channel, hNav1.5, purchased from Millipore (Billerica, Mass.). No beta subunits were coexpressed with the Na channel alpha subunit. Cells are maintained with standard tissue culture procedures and stable channel expression is maintained with 400 μg/ml Geneticin in the culture medium. […] Experiments are carried out at 24-27° C.
For both the Late INa and Peak INa assays, series resistance compensation is set to 50% and whole-cell compensation is performed automatically. […] Currents through open sodium channels are automatically recorded and stored in the DataXpress2 database (MDS Analytical Technologies, Sunnyvale, Calif.). Analysis is performed using DataXpress2 analysis software and data are compiled in Excel.
Compound stocks are routinely made in glass vials to 10 mM in dimethyl sulfoxide (DMSO). In some cases, when compounds are not soluble in DMSO, they are made in 100% ethanol. Stocks are sonicated as necessary. The extracellular solution for screening Late INa is composed of: 140 mM NaCl, 4 mM KCl, 1.8 mM CaCl2, 0.75 mM MgCl2, and 5 mM HEPES with pH adjusted to 7.4 using NaOH. The extracellular solution for screening Peak INa is composed of: 20 mM NaCl, 120 mM N-methyl-D glucamine, 4 mM KCl, 1.8 mM CaCl2, 0.75 mM MgCl2, and 5 mM HEPES with pH adjusted to 7.4 using HCl. The intracellular solution used to perfuse the inside of the cells for both the Late INa and Peak INa assays contains: 120 mM CsF, 20 mM CsCl, 5 mM EGTA, 5 mM HEPES and pH adjusted to 7.4 with CsOH. […] The 0Na extracellular solution used at the end of each experiment for the Late INa and Peak INa assays to measure baseline current contains: 140 mM N-methyl-D-glucamine; 4 mM KCl; 1.8 mM CaCl2; 0.75 mM MgCl2; 5 mM HEPES and pH was adjusted to 7.4 with HCl.
For the Late INa assay, sodium channels are activated every 10 seconds (0.1 Hz) by depolarizing the cell membrane to −20 mV for 250 milliseconds (ms) from a holding potential of −120 mV. In response to a −20 mV voltage step, typical Nav1.5 sodium currents activate rapidly to a peak negative current and then inactivate nearly completely within […].
All compounds are tested to determine their activity in blocking the late sodium current. Late INa current is generated by adding 10 μM Tefluthrin (pyrethroid) to the extracellular solution while recording Na currents For some experiments, 50 nM ATX II (sea anemone toxin), another late Na activator, was used to generate the late component. […] After establishing the whole cell recording configuration, late INa activators are added to each well 4 times over a 16-17 minute period so that the late component of the Na current reaches a stable value. […] Measurements are made at the end of exposure to the third compound addition and values are normalized to the current level when all Na^+ is removed from the extracellular solution after two additions of ONa-ECF. Results are reported as percent block of late INa

SMILES	inhibition at 1 µM
CS(=O)(=O)Nc1ccc(-c2cccc(Cl)c2)c(Cl)c1 [PT-053, N-(2,3′-dichlorobiphenyl-4-yl)methanesulfonamide]	29.9%
CS(=O)(=O)Nc1ccc(-c2ccc(Cl)c(C(F)(F)F)c2)c(Cl)c1 [PT-058, N-[2,4′-dichloro-3′-(trifluoromethyl)biphenyl-4-yl]methanesulfonamide]	42.5%
CS(=O)(=O)N(CCN1CCCCC1)c1ccc(-c2ccc(Cl)c(F)c2)c(Cl)c1 [PT-062, N-(2,4′-dichloro-3′-fluorobiphenyl-4-yl)-N-[2-(piperidin-1-yl)ethyl]methanesulfonamide]	25.7%
CS(=O)(=O)Nc1ccc(-c2cc(C(F)(F)F)cc(C(F)(F)F)c2)c(Cl)c1 [PT-065, N-[2-chloro-3′,5′-bis(trifluoromethyl)biphenyl-4-yl]methanesulfonamide]	27.8%
CS(=O)(=O)Nc1ccc(-c2cccc(OC(F)(F)F)c2)c(F)c1 [PT-067, N-[2-fluoro-3′-(trifluoromethoxy)biphenyl-4-yl]methanesulfonamide]	13.8%

same assay, conditions: 10 μM test compound; HEK293 hNav1.5; late INa generated with 10 μM Tefluthrin (some experiments 50 nM ATX II); read-out: Late INa % blk (10 μM test cmpd)

SMILES	inhibition at 10 µM
O=S(=O)(Nc1ccc(-c2ccc(Oc3ccccc3)cc2)c(Cl)c1)C1CC1 [PT-048, N-(2-chloro-4′-phenoxybiphenyl-4-yl)cyclopropanesulfonamide]	37.9%
COc1ccc(-c2ccc(NS(C)(=O)=O)cc2Cl)cc1 [PT-051, N-(2-chloro-4′-methoxybiphenyl-4-yl)methanesulfonamide]	27%
CS(=O)(=O)Nc1ccc(-c2cccc(F)c2)c(Cl)c1 [PT-052, N-(2-chloro-3′-fluorobiphenyl-4-yl)methanesulfonamide]	50.1%
CS(=O)(=O)Nc1ccc(-c2cccc(Cl)c2)c(Cl)c1 [PT-053, N-(2,3′-dichlorobiphenyl-4-yl)methanesulfonamide]	72.2%
CS(=O)(=O)Nc1ccc(-c2cccc([N+](=O)[O-])c2)c(Cl)c1 [PT-054, N-(2-chloro-3′-nitrobiphenyl-4-yl)methanesulfonamide]	41.3%
Cc1cc(NS(C)(=O)=O)ccc1-c1ccc(F)cc1 [PT-056, N-(4′-fluoro-2-methylbiphenyl-4-yl)methanesulfonamide]	40.8%
Cc1cc(NS(C)(=O)=O)ccc1-c1ccc(F)c(F)c1 [PT-057, N-(3′,4′-difluoro-2-methylbiphenyl-4-yl)methanesulfonamide]	35.9%
CS(=O)(=O)Nc1ccc(-c2ccc(Cl)c(C(F)(F)F)c2)c(Cl)c1 [PT-058, N-[2,4′-dichloro-3′-(trifluoromethyl)biphenyl-4-yl]methanesulfonamide]	78.5%
CS(=O)(=O)Nc1ccc(-c2ccc(Cl)c(F)c2)c(F)c1 [PT-059, N-(4′-chloro-2,3′-difluorobiphenyl-4-yl)methanesulfonamide]	41.3%
CS(=O)(=O)N(CCN1CCOCC1)c1ccc(-c2ccc(Cl)c(F)c2)c(Cl)c1 [PT-061, N-(2,4′-dichloro-3′-fluorobiphenyl-4-yl)-N-[2-(morpholin-4-yl)ethyl]methanesulfonamide]	20.6%
CS(=O)(=O)N(CCN1CCCCC1)c1ccc(-c2ccc(Cl)c(F)c2)c(Cl)c1 [PT-062, N-(2,4′-dichloro-3′-fluorobiphenyl-4-yl)-N-[2-(piperidin-1-yl)ethyl]methanesulfonamide]	74.8%
CN1CCN(CCN(c2ccc(-c3ccc(Cl)c(F)c3)c(Cl)c2)S(C)(=O)=O)CC1 [PT-063, N-(2,4′-dichloro-3′-fluorobiphenyl-4-yl)-N-[2-(4-methylpiperazin-1-yl)ethyl]methanesulfonamide]	48.8%
CS(=O)(=O)N(Cc1nn[nH]n1)c1ccc(-c2ccc(Cl)c(F)c2)c(Cl)c1 [PT-064, N-(2,4′-dichloro-3′-fluorobiphenyl-4-yl)-N-(2H-tetrazol-5-ylmethyl)methanesulfonamide]	30.5%
CS(=O)(=O)Nc1ccc(-c2cc(C(F)(F)F)cc(C(F)(F)F)c2)c(Cl)c1 [PT-065, N-[2-chloro-3′,5′-bis(trifluoromethyl)biphenyl-4-yl]methanesulfonamide]	85.6%
CS(=O)(=O)N(c1ccc(-c2ccc(Oc3ccccc3)cc2)cc1Cl)C1CCC[C@@H]1O (stereo partly drawn) [PT-066, N-(3-chloro-4′-phenoxybiphenyl-4-yl)-N-[(2S)-2-hydroxycyclopentyl]methanesulfonamide]	33.8%
CS(=O)(=O)Nc1ccc(-c2cccc(OC(F)(F)F)c2)c(F)c1 [PT-067, N-[2-fluoro-3′-(trifluoromethoxy)biphenyl-4-yl]methanesulfonamide]	70.7%
CS(=O)(=O)Nc1ccc(-c2cc(F)cc(F)c2)c(Cl)c1 [PT-068, N-(2-chloro-3′,5′-difluorobiphenyl-4-yl)methanesulfonamide]	42.2%

SMILES	inhibition at 10 µM
CS(=O)(=O)Nc1ccc(-c2ccc(F)c(C(F)(F)F)c2)c(Cl)c1 [PT-069, N-[2-chloro-4′-fluoro-3′-(trifluoromethyl)biphenyl-4-yl]methanesulfonamide]	63%
CS(=O)(=O)Nc1ccc(-c2cc(C(F)(F)F)ccc2F)c(Cl)c1 [PT-070, N-[2-chloro-2′-fluoro-5′-(trifluoromethyl)biphenyl-4-yl]methanesulfonamide]	69.7%
CS(=O)(=O)Nc1ccc(-c2cc(F)c(F)c(F)c2)c(Cl)c1 [PT-071, N-(2-chloro-3′,4′,5′-trifluorobiphenyl-4-yl)methanesulfonamide]	59.5%
O=S(=O)(Nc1ccc(-c2ccc(Oc3ccccc3)cc2)cc1)C1CC1 [PT-072, N-(4′-phenoxybiphenyl-4-yl)cyclopropanesulfonamide]	35.6%
Cc1cc(N(Cc2cccnc2)S(C)(=O)=O)ccc1-c1cccc(OC(F)(F)F)c1 [PT-073, N-[2-methyl-3′-(trifluoromethoxy)biphenyl-4-yl]-N-(pyridin-3-ylmethyl)methanesulfonamide]	64.4%
CS(=O)(=O)Nc1ccc(-c2ccc(Cl)c(F)c2)cc1OC(F)(F)F [PT-074, N-[4′-chloro-3′-fluoro-3-(trifluoromethoxy)biphenyl-4-yl]methanesulfonamide]	24.2%
CS(=O)(=O)Nc1ccc(-c2ccc(C(F)(F)F)cc2)cc1OC(F)(F)F [PT-075, N-[3-(trifluoromethoxy)-4′-(trifluoromethyl)biphenyl-4-yl]methanesulfonamide]	24.4%
CS(=O)(=O)Nc1ccc(-c2cccc(C(F)(F)F)c2)cc1OC(F)(F)F [PT-076, N-[3-(trifluoromethoxy)-3′-(trifluoromethyl)biphenyl-4-yl]methanesulfonamide]	18.7%
COCCN(c1ccc(-c2ccc(Cl)c(F)c2)c(Cl)c1)S(C)(=O)=O [PT-077, N-(2,4′-dichloro-3′-fluorobiphenyl-4-yl)-N-(2-methoxyethyl)methanesulfonamide]	27.2%
CS(=O)(=O)Nc1ccc(-c2ccc(OC(F)(F)F)cc2)c(F)c1 [PT-078, N-[2-fluoro-4′-(trifluoromethoxy)biphenyl-4-yl]methanesulfonamide]	49.1%
CS(=O)(=O)Nc1ccc(-c2cccc(C(F)(F)F)c2)c(F)c1 [PT-079, N-[2-fluoro-3′-(trifluoromethyl)biphenyl-4-yl]methanesulfonamide]	53.2%
CS(=O)(=O)Nc1ccc(-c2ccc(C(F)(F)F)cc2)c(F)c1 [PT-080, N-[2-fluoro-4′-(trifluoromethyl)biphenyl-4-yl]methanesulfonamide]	66%
O=S(=O)(C1CC1)N(Cc1cccnc1)c1ccc(-c2cccc(OC(F)(F)F)c2)c(Cl)c1 [PT-081, N-[2-chloro-3′-(trifluoromethoxy)biphenyl-4-yl]-N-(pyridin-3-ylmethyl)cyclopropanesulfonamide]	40.4%
CS(=O)(=O)Nc1ccc(-c2ccc(OC(F)(F)F)cc2)cc1 [PT-086, N-[4′-(trifluoromethoxy)biphenyl-4-yl]methanesulfonamide]	9.4%
COc1cc(N(CC(=O)O)S(C)(=O)=O)ccc1-c1cccc(OC(F)(F)F)c1 [PT-089, N-[2-methoxy-3′-(trifluoromethoxy)biphenyl-4-yl]-N-(methylsulfonyl)glycine]	-4.1%
CS(=O)(=O)N(CC(=O)O)c1ccc(-c2ccc(Cl)c(F)c2)c(Cl)c1 [PT-092, N-(2,4′-dichloro-3′-fluorobiphenyl-4-yl)-N-(methylsulfonyl)glycine]	-2.4%
CS(=O)(=O)Nc1ccc(-c2ccc(OC(F)(F)F)cc2)c(Cl)c1 [PT-094, N-[2-chloro-4′-(trifluoromethoxy)biphenyl-4-yl]methanesulfonamide]	5.6%
